Columns and labels:
[1] = tested on: retinal ganglion cells (RGCs)
Description: Glutamate-induced toxicity: C57Bl/6J mice were anesthetized by intraperitoneal (i.p.) injection of ketamine (80 mg/kg; Fort Dodge Laboratories, Fort Dodge, Iowa) and xylazine (16 mg/kg; Vitamed, Israel). Their right eyes were punctured with a 27 gauge needle in the upper part of the sclera and a hamilton syringe with a 30-gauge needle was inserted as far as the vitreal body. Each mouse was injected with a total volume of 1 μl saline containing L-glutamate (100 nmol). Mice in one group were also injected intravenously (i.v.) with 5 μg of CSPG-DSs in 200 μl saline (Schori, 2001).
Labeling of retinal ganglion cells: Mice were anesthetized as described above and placed in a stereotactic device. The skull was exposed and the bregma identified and marked. […] A window was drilled in the scalp above the designated coordinates in the right and left hemispheres. […]
Assessment of retinal ganglion cell survival: Retinas were examined for labeled retinal ganglion cells (RGCs) by fluorescence microscopy. Labeled cells from four to six fields of identical size (0.076 mm^2) were counted. […] Cells were counted under the fluorescence microscope (magnification ×800) by observers blinded to the treatment received by the mice. The average number of RGCs per field was calculated for each retina. The number of RGCs in the contralateral (uninjured) eye was also counted and served as an internal control.

human T cells = assay type: cell-based
Description: T-cell apoptosis: T cells (2×10^6 cells/ml) were incubated for 2 h with the indicated concentrations of CSPG-DS in RPMI medium containing 10% FCS, and then plated on 24-well plates (non-tissue-culture grade) precoated with anti-CD3 mAb (1 μg/ml; overnight) and cultured for 72 h. The percentage of cells undergoing apoptosis was determined using the annexin V-detection assay (Bender MedSystem, San Bruno, Calif.). The cells were incubated for 10 min in the dark at room temperature in 200 μl of buffer containing FITC-conjugated human annexin V ([…]; Bender MedSystem, Propidium iodide (10 μl) was added to each sample, and the percentage of cells undergoing apoptosis was analyzed by FACS® at 525 nm using CELLQuest Software. Cells that stained positively for annexin V and negatively for propidium iodide corresponded to the apoptotic cells.

PC12 cells = experiment: PC12 cell viability after glutamate, XTT assay; assay type: cell-based, rat; details: disaccharides 1 to 50 μg/ml for 45 min, glutamate 10^−3 M 15 min, XTT after 24 h
Description: PC12 cell line. Rat pheochromocytoma (PC12) cells were cultured in DMEM containing horse serum and FCS, both at 8% (culture medium) or at 1% (differentiation medium).
Cell viability assay. PC12 cells were seeded on collagen-coated 96-well plates at a density of 10^4 cells per well (in differentiation medium containing 100 ng/ml NGF). The cells were incubated with CSPG-DS or other disaccharides at the indicated concentrations for 45 min, then washed with PBS and exposed to glutamate (10^−3 M) for 15 min. The glutamate solution was washed away and replaced with DMEM for a further 24 h of incubation. The number of viable cells was then determined with the XTT viability kit according to the manufacturer's instructions.

CC(=O)N[C@H]1C(O)O[C@H](COS(=O)(=O)O)[C@H](O)[C@@H]1O[C@@H]1OC(C(=O)O)=C[C@H](O)[C@H]1O (stereo partly drawn) [CSPG-DS, 2-acetoamido-2-deoxy-3-O-(β-D-gluco-4-enepyranosyluronic acid)-6-O-sulfo-D-galactose]
neuronal survival in the absence of glutamate ([1]; intravitreal injection of CSPG-DSs, no glutamate): no effect
number of surviving RGCs per mm2 ([1]; mice, intravitreal toxic glutamate, single i.v. injection of sulfated CSPG-DSs (5 μg), assessed 1 week later, mean±SEM): 1965±166 per mm2
viability of the T cells (apoptosis) (human T cells): did not significantly affect
survival of PC12 cells exposed to glutamate (PC12 cells): protected PC12 cells from glutamate toxicity
